Data as given in patent publication US11466020B2, “Compounds and compositions for inhibition and elimination of Zika infection and uses for same” (Cornell University, priority 2017, dated 2022).
Counter-ions that a name gives are not always drawn.

Tested on: ZIKV (FSS13025 strain)
Test: Therapeutic treatment of ZIKV (FSS13025 strain) infected SCID-beige mice
Type: in vivo
Details: HH 100 mg/kg/day subcutaneously for 7 days from day 7 post-infection
Experimental: (A) Scheme of prophylactic treatment of HH in vivo. HH was administrated to SCID-Beige mice 12 h before infection with MR766 virus strain. HH was injected at a dose of 100 mg/kg/day subcutaneously and euthanized at day 7. (B) qRT-PCR analysis of total ZIKV vRNA in liver, spleen, kidney and brain of ZIKV infected mice. n=12 for liver, spleen and kidney and 20 for brain. (C) qRT-PCR analysis of total ZIKV vRNA in brains of ZIKV-infected mice treated with vehicle (n=14) or HH (n=8). […] (D-F) Immunohistochemical analysis of adult cortex. […] HH prevents infection in all cortical cells. Scale bar=100 μm in (D) and 10 μm in (E, F). (G-I) Immunohistochemical analysis of adult hippocampus. […] HH inhibits infection of all cells in the hippocampus. […] The mice were then euthanized and RNA from brains was analyzed using qRT-PCR. […] The mice were euthanized after 7 days treatment and RNA from brains was analyzed using qRT-PCR. (W, X) qRT-PCR analysis of total vRNA (W) and (−) strand RNA (X) in the brains of mice treated with vehicle (n=8) or HH (n=11) at day 7 post-infection. p values were calculated by one-way repeated measures ANOVA or two-way repeated measures ANOVA with a Bonferroni test for multiple comparisons. *p<0.05, **p<0.01 and ***p<0.001.
To evaluate the therapeutic potential of HH, we first monitored the kinetics of ZIKV infection (MR766 strain) in the adult mouse brain. […]

Compound: CN1CCC2=C[C@H](O)[C@H]3OC(=O)c4cc5c(cc4[C@H]3[C@@H]21)OCO5 [HH, hippeastrine hydrobromide]
- total and replication (-) strand vRNA in mouse brain: significantly decreased
